PMC7579925, “Complementary NAD^+ replacement strategies fail to functionally protect dystrophin-deficient muscle” (Skeletal Muscle, 2020)

Target: T1, CD38 (Mus musculus, UniProt P56528)
T1 construct: recombinant soluble (extracellular) domain, expressed in and purified from Pichia pastoris
T1 sequence (P56528 45-304 limits assumed): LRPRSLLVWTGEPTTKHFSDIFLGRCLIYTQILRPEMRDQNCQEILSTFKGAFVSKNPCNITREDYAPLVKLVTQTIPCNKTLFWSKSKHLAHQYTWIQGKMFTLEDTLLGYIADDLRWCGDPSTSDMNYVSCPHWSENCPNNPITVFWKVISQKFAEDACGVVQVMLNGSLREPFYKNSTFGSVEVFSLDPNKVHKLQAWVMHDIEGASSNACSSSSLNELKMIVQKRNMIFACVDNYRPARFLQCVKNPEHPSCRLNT
Assay: colorimetric base-exchange (transglycosidation) assay, dose-response
Type: biochemical

Substance: GSK978A
- IC50: ~ 12 ng/mL
